The results in this text go back to patent US9896470B2, “Enhancing the stability and purity and increasing the bioavailability of human milk oligosaccharides or precursors or blends thereof” (Glycom A/S, priority 2012, dated 2018).

Holding throughout (format): physicochemical
Data set [1] in a line: Shelf life of spray-dried material on storage. Conditions: below 40° C. storage temperature.
The nature of data set [2]: Stability test after two months (40° C., rel. humidity 75%). The protocol:
75% of the methanol present in the feed solution was removed. […] Tg: 83.9° C.

Data set [3] is described as follows: Calorimetric (DSC) determination of glass transition temperature of the amorphous samples. To be noted: for Tg (glass transition temperature): Perkin Elmer DSC-7, heating rate 10° C./min, spray-dried amorphous sample; for storage temperature limit suggested by Tg: spray-dried amorphous material. The method, then:
The calorimetric experiments to determine the glass transition temperature of the amorphous samples were carried out using Perkin Elmer DSC-7 at a heating rate of 10° C./min; the samples (5-7 mg) were placed in open aluminium crucibles.

For the compound `CC(=O)N[C@H]1[C@H](O[C@H]2[C@@H](O)[C@@H](CO)O[C@@H](O[C@H]3[C@H](O)[C@@H](O)C(O)O[C@@H]3CO)[C@@H]2O)O[C@H](CO)[C@@H](O[C@@H]2O[C@H](CO)[C@H](O)[C@H](O)[C@H]2O)[C@@H]1O` (mixture of isomers) [spray-dried LNnT, Lacto-N-neotetraose], the shelf life result in data set [1] is “excellent shelf life”. Besides, the “stability test: changes in analytical data and powder X-ray diagram” value in data set [2] was “no changes in the analytical data and powder X-ray diagram”. In data set [3], the “Tg (glass transition temperature)” value came to 81.6 °C and the “storage temperature limit suggested by Tg” value was “around 60 °C”.
Regarding `C[C@@H]1OC(O[C@H]2[C@H](O[C@H]3[C@H](O)[C@@H](O)C(O)O[C@@H]3CO)O[C@H](CO)[C@H](O)[C@@H]2O)[C@@H](O)[C@H](O)[C@@H]1O` (some centres unmarked) [spray-dried 2′-FL, 2′-O-fucosyllactose], in data set [1], the shelf life entry was “excellent shelf life”. Moreover, the “stability test: changes in analytical data and powder X-ray diagram” value in data set [2] is “no changes in the analytical data and powder X-ray diagram”. In data set [3], the “Tg (glass transition temperature)” value came to 83.9 °C and the “storage temperature limit suggested by Tg” value is “around 60 °C”.
In the case of `CC(=O)N[C@H]1[C@H]([C@H](O)[C@H](O)CO)O[C@@](OC[C@H]2O[C@@H](O[C@H]3[C@H](O)[C@@H](O)[C@H](O)O[C@@H]3CO)[C@H](O)[C@@H](O)[C@H]2O)(C(=O)O)C[C@@H]1O` [spray-dried 6′-SL, 6′-O-sialyllactose], the shelf life result in data set [1] is listed as “excellent shelf life”. Moreover, in data set [3], the “Tg (glass transition temperature)” value came to 84.0 °C and the “storage temperature limit suggested by Tg” value was “around 60 °C”.
